≈ marks a conversion by molar mass, not a printed value. Like-named read-outs stand apart in the source and are kept apart here.
Experiments:
[1] = Heart rate and blood pressure in freely-moving rats; type: in vivo; conditions: 0.1 mg/kg intraperitoneal vs saline
From the text: The muscarinic agonist carbachol can induce a transient bradycardic effect by activating M2 receptors in the SAN.

107C RGS8 (C160S) = 107C RGS8 (C160S) (Homo sapiens (Human), UniProt P57771, C160S); test: FCPIA: RGS8 mutant 107C; type: binding
Sequence of 107C RGS8 (C160S) (P57771 other isoform, or with tags, fused parts or gaps C160S): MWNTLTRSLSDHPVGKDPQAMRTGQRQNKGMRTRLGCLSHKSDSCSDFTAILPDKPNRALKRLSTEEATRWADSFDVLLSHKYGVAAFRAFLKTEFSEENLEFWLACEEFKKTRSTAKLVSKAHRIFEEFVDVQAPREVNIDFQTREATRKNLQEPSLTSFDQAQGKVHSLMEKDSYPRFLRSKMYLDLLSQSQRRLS
Description: (§1) With the exception of RGS8 mutants, all RGS and G proteins were prepared as previously described (Roman, D., et al., Mol Pharmacol). […] Mutagenesis was performed using the QuickChange Multi-site Directed Mutagenesis kit (Agilent, La Jolla Calif.).
(§2) This protein only contains two cysteines in the RGS homology domain, making it a simpler model system to study than other RGS proteins. Each cysteine from the RGS8 RGS homology (RH) domain was individually mutated to serine and the activity of the compound was analyzed via FCPIA (FIG. 6).

HEK-293 cells = test: WST-1 cell viability; type: cell-based; conditions: up to 100 μM, overnight
Description: WST-1 Cell Viability Studies:
HEK-293 cells were plated to a density of 30,000/well in 96-well plates and grown for 48 hours in Dulbecco's Modified Eagle Medium (DMEM) containing 10% fetal bovine serum and Penicillin (100 units/ml)-Streptomycin (100 μg/ml) under 5% CO2 at 37° C. Compound treatment was performed overnight in DMEM containing 0.1% bovine serum albumin under 5% CO2 at 37° C. After compound incubation ten microliters of the WST-1 reagent (Hoffmann-La Roche, Switzerland) was added to every well and the cells were incubated for 1 hour under 5% CO2 at 37° C. Absorbance was measured at 450 nm using a Victor II plate reader (Perkin-Elmer, Picastaway, N.J.).

RGS8 = RGS8 (Homo sapiens (Human), UniProt P57771); test: FCPIA: Gαo binding to RGS8; conditions: for IC50: read-out: RGS8 IC50; for RGS8 Hill Slope: Table 3
Sequence of RGS8 (P57771 other isoform, or with tags, fused parts or gaps): as the sequence (P57771 other isoform, or with tags, fused parts or gaps C160S) above, with S160C counted along it
From the text: (§3) FCPIA Dose Response and Reversibility Experiments:

160C RGS8 (C107S) = 160C RGS8 (C107S) (Homo sapiens (Human), UniProt P57771, C107S); test: FCPIA: RGS8 mutant 160C; type: binding
Sequence of 160C RGS8 (C107S) (P57771 other isoform, or with tags, fused parts or gaps C107S): as the sequence (P57771 other isoform, or with tags, fused parts or gaps C160S) above, with C107S, S160C counted along it
Description: as §1, §2

Solubility experiments = type: physicochemical; conditions: water; aqueous
Description: Compounds were diluted to 100 mM in DMSO and the further diluted to 500 μM in H2O, vortexed and centrifuged for 10 minutes at 13,000×g at ambient temperature.

δ-opioid receptor = test: cAMP accumulation in SH-SY5Y cells, SNC80; type: cell-based
Description: (§4) Accumulated cAMP was measured by radioimmunoassay in a 10-15 μl aliquot of the supernatant from each sample following the manufacturer's instructions (cAMP radioimmunoassay kit from GE Healthcare, Piscataway, N.J.). Data are from four separate experiments, each carried out in duplicates and calculated as percent inhibition.
as §4, with “Cells were plated into 24-well plates to reach ˜90% confluency on the day of assay and washed once with fresh serum-free medium. […] Accumulated” for “Accumulated”

RGS4 [2] = target: RGS4 (Homo sapiens (Human), UniProt P49798); test: FCPIA: Gαo binding to RGS4; conditions: for RGS4 Hill Slope: Table 3
Sequence of RGS4 (Homo sapiens (Human), UniProt P49798) (P49798 whole entry, looked up): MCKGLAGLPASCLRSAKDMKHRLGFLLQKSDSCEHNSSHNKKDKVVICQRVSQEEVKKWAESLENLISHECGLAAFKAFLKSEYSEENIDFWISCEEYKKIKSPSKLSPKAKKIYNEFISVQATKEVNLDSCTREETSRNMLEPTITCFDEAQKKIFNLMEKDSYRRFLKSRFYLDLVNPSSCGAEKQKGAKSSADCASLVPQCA
From the text: as §3

HEK293 cells = test: Calcium mobilization induced by compound alone; type: cell-based; conditions: Homo sapiens, HEK293; read-out: Calcium transient (% 50014);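 also: percent of response to 10 µM reference CCG-50014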
Procedure, shortened: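 HEK-293 Flp-In TREx cells stably expressing muscarinic M3 receptor, with human RGS4 induced by 1 μg/mL doxycycline for 24-48 h, loaded with Fluo-4 for 30 min at 37° C. Compound added without carbachol; fluorescence followed for 120 s, quantified as area under curve or peak intensity.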

RGS4 [3] = test: FCPIA: Gαo binding to RGS4; conditions: for IC50: read-out: RGS4 IC50
From the text: as §3

M3 muscarinic receptor = test: Carbachol-induced Ca2+ response, M3 cells without RGS4 dependence; type: cell-based; conditions: 10 μM (FIG. 20) or as stated
Description: Calcium Mobilization Experiments:
(§5) A stable cell line was developed based upon the HEK-293 Flp-In TREx cell line (Invitrogen, Carlsbad, Calif.) that stably express the muscarinic M3 receptor and have human RGS4 expression under doxycycline control. Cells were maintained in DMEM supplemented with 10% fetal bovine serum and Penicillin (100 units/ml)-Streptomycin (100 μg/ml) under 5% CO2 at 37° C. For experiments, cells were split into 96-well black, clear bottom, poly-D-lysine coated microtiter plates (Nunc, Cat. #152037) at a density of 20,000 cells/well in DMEM containing 10% fetal bovine serum and Penicillin (100 units/ml), Streptomycin (100 μg/ml). RGS4 expression was induced by supplementing the medium with 1 μg/mL doxycycline for 24-48 hours before experimentation. Cells were loaded with Fluo-4 No Wash dye in buffer for 30 minutes at 37° C. Compounds and/or carbachol were added to the wells and the fluorescence intensity was measured using a FlexStation (Molecular Devices, Sunnyvale, Calif.) plate reader. Data analysis was performed by calculating the area under the curve or maximal fluorescence intensity from a 120 second kinetic measurement.
as §5, with “Calcium signaling transients: A” for “A”, “units/ml)-Streptomycin” for “units/ml), Streptomycin”

papain = papain (Carica papaya (Papaya), UniProt P00784); test: biochemical; type: biochemical
Sequence of papain (P00784 134-345): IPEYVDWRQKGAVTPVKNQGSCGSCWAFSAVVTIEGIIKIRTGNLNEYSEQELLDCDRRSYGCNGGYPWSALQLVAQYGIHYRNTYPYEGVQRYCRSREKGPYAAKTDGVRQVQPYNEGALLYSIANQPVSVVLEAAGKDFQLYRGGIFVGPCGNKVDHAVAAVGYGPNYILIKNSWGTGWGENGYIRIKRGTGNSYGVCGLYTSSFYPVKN
From the text: Papain (Sigma-Aldrich, St. Louis, Mo.) activity was monitored by the increase in fluorescence caused by the liberation of fluorescein from autoquenched fluorescein-conjugated casein (AnaSpec, San Jose, Calif.).

[4] = Table 2, mean of two independent FCPIA experiments
[5] = Table 3, duplex FCPIA, average of two experiments

Row | RGS8 Hill Slope (RGS8) | Fold Selectivity (R8/R4) (RGS4 [2]) | Fold Selectivity (RGS8 IC50/ RGS4 IC50) (RGS4 [2]) | Selectivity RGS4/ RGS8 (RGS4 [2]) | RGS4 Hill Slope (RGS4 [2]) | IC50 (RGS4 [2]; [5]) [µM] | IC50 (RGS8; Table 6, FCPIA) [µM] | SMILES | Emax at 10 µM (HEK293 cells) [%] | also measured
1 |  |  |  |  |  |  |  | C[N+](C)(C)CCOC(N)=O [carbachol, reference compound] |  | heart rate after carbachol [1]: significant decrease in heart rate
2 |  |  |  |  |  |  |  | Cc1ccc(-n2sc(=O)n(Cc3ccc(F)cc3)c2=O)cc1 [CCG-50014, 4-[(4-fluorophenyl)methyl]-2-(4-methylphenyl)-1,2,4-thiadiazolidine-3,5-dione] |  | inhibition at 20 µM (107C RGS8 (C160S); 20 μM, all time points, read-out: irreversible inhibition of 107C RGS8): ~20%; IC50 (107C RGS8 (C160S); FIG. 6): 46.5 µM; cell viability (WST-1) (HEK-293 cells): did not reduce cell viability below control levels; IC50 (RGS8; [4]): 1.1 µM; Ki (RGS8; read-out: experimentally derived Ki value): 0.3 µM; inhibition at 20 µM (160C RGS8 (C107S); 20 μM, all time points, read-out: irreversible inhibition of 160C RGS8): ~50%; IC50 (160C RGS8 (C107S); FIG. 6): 0.71 µM; solubility (Solubility experiments): ~100 µM (≈ 31.6 µg/mL); inhibition of forskolin-stimulated adenylate cyclase by SNC-80 with compound (δ-opioid receptor; 100 nM SNC-80 + 100 μM CCG-50014): 44%; effect on forskolin-stimulation of cAMP production (δ-opioid receptor; 100 μM): no effect
3 | −1.06 | 543 | 543 | 564 | −1.66 | 0.014 |  | O=c1sn(-c2ccc(Cl)cc2)c(=O)n1Cc1ccc(F)cc1 [CCG-203727, 2-(4-chlorophenyl)-4-(4-fluorobenzyl)-1,2,4-thiadiazolidine-3,5-dione] | 158 | IC50 (RGS8; [5]): 7.6 µM
4 |  |  |  |  |  |  | 144 | O=C1C=C(Br)C(=O)N1Cc1ccccc1 [S37, 1-benzyl-3-bromo-1H-pyrrole-2,5-dione] |  | IC50 (RGS4 [2]; Table 6, FCPIA): 32.9 µM
5 |  |  |  |  |  |  | 36.1 | CCn1sc(=O)n(CCOC)c1=O [CCG-203920, 2-ethyl-4-(2-methoxyethyl)-1,2,4-thiadiazolidine-3,5-dione] |  | IC50 (RGS4 [3]; Table 6, FCPIA): 0.0543 µM; effect on carbachol-induced Ca2+ response (RGS-independent) (M3 muscarinic receptor): no effect
6 | −0.94 | 536 | 536 | 519 | −3.63 | 0.014 | 7.5 | Cc1ccc(-n2sc(=O)n(Cc3ccccc3)c2=O)cc1 [CCG-203724, 2-p-tolyl-4-benzyl-1,2,4-thiadiazolidine-3,5-dione] | 177 | 
7 | −0.73 | 561 | 561 | 558 | −1.13 | 0.038 |  | Cc1cccc(-n2sc(=O)n(Cc3ccccc3)c2=O)c1 [CCG-203785, 2-(3-methylphenyl)-4-benzyl-1,2,4-thiadiazolidine-3,5-dione] | 145 | IC50 (RGS8; [5]): 21.3 µM
8 |  |  |  |  |  |  |  | CCN1C(=O)C=CC1=O [N-ethyl maleimide, reference compound] |  | inhibition of papain by general cysteine alkylators (papain): no effect; effect on RGS8 (RGS8; FCPIA): no effect
9 |  |  |  |  |  |  |  | O=C1C=C(Br)C(=O)N1Cc1ccccc1 [CCG-203780] |  | IC50 (RGS8; [4]): > 100 µM; IC50 (RGS4 [2]; [4]): 32 µM
10 |  |  |  |  |  |  |  | NC(=O)CI [iodoacetamide, reference compound] |  | inhibition of papain by general cysteine alkylators (papain): dose-dependent; effect on Gα0 binding to the RGS proteins tested (RGS4 [2]; FCPIA): no effect
11 | −0.44 | 2513 | 2513 | 2540 | −0.87 | 0.039 | 98 | CCCCn1sc(=O)n(CC(C)C)c1=O [CCG-203764, 2-butyl-4-isobutyl-1,2,4-thiadiazolidine-3,5-dione] | 142 | 
12 | −0.96 |  |  |  |  |  | 9.5 | CCCCn1c(=O)sn(-c2ccc(C)cc2)c1=O [CCG-203767, 2-p-tolyl-4-butyl-1,2,4-thiadiazolidine-3,5-dione] | 123 | RGS4 Hill Slope (RGS4 [3]; Table 3): −1.46; IC50 (RGS4 [3]; [5]): 0.02 µM
